Measured values published in patent US9408863B2, “5′-substituted nucleoside analogs and methods of use thereof for the treatment of viral diseases” (Merck Sharp & Dohme Corp., priority 2011, dated 2016).
pEC50: −log10 of the molar value.

System: HCV replicon (1b) in replicon cells
Experiment: Cell-based HCV replicon assay (replicon RNA level by real time PCR, Taqman)
Settings: Hepatitis C virus, 72 h, read-out: 1b EC50
Protocol: To measure cell-based anti-HCV activity of selected compounds of the present invention, replicon cells were seeded at 5000 cells/well in 96-well collagen I-coated Nunc plates in the presence of the test compound. Various concentrations of test compound, typically in 10 serial 2-fold dilutions, were added to the assay mixture, with the starting concentration ranging from 250 μM to 1 μM. The final concentration of dimethylsulfoxide was 0.5%, fetal bovine serum was 5%, in the assay media. Cells were harvested on day 3 by the addition of 1× cell lysis buffer (Ambion cat #8721). The replicon RNA level was measured using real time PCR (Taqman assay). The amplicon was located in 5B. The PCR primers were: 5B.2F, ATGGACAGGCGCCCTGA (SEQ ID. NO. 1); 5B.2R, […] (SEQ ID. NO. 2); the probe sequence was FAM-labeled CACGCCATGCGCTGCGG (SEQ ID. NO. 3). GAPDH RNA was used as endogenous control and was amplified in the same reaction as NS5B (multiplex PCR) using primers and VIC-labeled probe recommended by the manufacturer (PE Applied Biosystem). The real-time RT-PCR reactions were run on ABI PRISM 7900HT Sequence Detection System using the following program: 48° C. for 30 minutes, 95° C. for 10 minutes, 40 cycles of 95° C. for 15 sec, 60° C. for 1 minute. The ACT values (CT5B-CTGAPDH) were plotted against the concentration of test compound and fitted to the sigmoid dose-response model using XLfit4 (MDL). EC50 was defined as the concentration of inhibitor necessary to achieve ΔCT=1 over the projected baseline; EC90 the concentration necessary to achieve ΔCT=3.2 over the baseline. Alternatively, to quantitate the absolute amount of replicon RNA, a standard curve was established by including serially diluted T7 transcripts of replicon RNA in the Taqman assay. All Taqman reagents were from PE Applied Biosystems. Such an assay procedure was described in detail in e.g. Malcolm et al., Antimicrobial Agents and Chemotherapy 50: 1013-1020 (2006).

Structure (SMILES) | pEC50
CCCCOC(=O)[C@H](C)NP(=O)(Oc1cccc2ccccc12)O[C@H](C)[C@H]1O[C@@H](n2ccc(=O)[nH]c2=O)[C@](C)(O)[C@@H]1O (stereo partly shown) [Compound 4] | < 4.00
CCCCOC(=O)[C@H](C)NP(=O)(Oc1cccc2ccccc12)O[C@H](C)[C@H]1O[C@@H](n2ccc(N)nc2=O)[C@](C)(O)[C@@H]1O (stereo partly shown) [Compound 2] | 5.00
CCCCOC(=O)[C@H](C)NP(=O)(Oc1cccc2ccccc12)O[C@H](C)[C@H]1O[C@@H](n2cnc3c(=O)[nH]c(N)nc32)[C@](C)(O)[C@@H]1O (stereo partly shown) [Compound 10] | < 4.00
CCCCOC(=O)[C@H](C)NP(=O)(Oc1cccc2ccccc12)O[C@@H](C)[C@H]1O[C@@H](n2ccc(N)nc2=O)[C@](C)(O)[C@@H]1O (stereo partly shown) [Compound 6] | < 4.00

Same assay, conditions: Hepatitis C virus, 72 h; HCV 1b replicon cells, harvested on day 3; EC50 = concentration to achieve ΔCT=1 over projected baseline; read-out: 1b EC50

Structure (SMILES) | pEC50
CC(O)[C@H]1O[C@@H](n2cnc3c(OCc4ccccc4)nc(NC(=O)c4ccccc4)nc32)[C@](C)(F)[C@@H]1O (stereo partly shown) [Compound 12] | 4.85
C[C@H](O)[C@H]1O[C@@H](n2cnc3c(=O)[nH]c(N)nc32)[C@](C)(O)[C@@H]1O [Compound 11] | < 4.00
CC(O)[C@H]1O[C@@H](n2cnc3c(=O)[nH]c(N)nc32)[C@](C)(F)[C@@H]1O (stereo partly shown) [Compound 13] | 5.46
CC(O)[C@H]1O[C@@H](n2ccc(N)nc2=O)[C@](C)(F)[C@@H]1O (stereo partly shown) [Compound 8] | 4.42
C[C@H](O)[C@H]1O[C@@H](n2ccc(N)nc2=O)[C@](C)(O)[C@@H]1O [Compound 5] | < 4.00
CC(O)[C@H]1O[C@@H](n2ccc(NC(=O)c3ccccc3)nc2=O)[C@](C)(F)[C@@H]1O (stereo partly shown) [Compound 7] | < 4.00
C[C@@H](O)[C@H]1O[C@@H](n2cnc3c(=O)[nH]c(N)nc32)[C@](C)(O)[C@@H]1O [Compound 9] | < 4.00
C[C@@H](O)[C@H]1O[C@@H](n2ccc(N)nc2=O)[C@](C)(O)[C@@H]1O [Compound 1] | < 4.00
C[C@@H](O)[C@H]1O[C@@H](n2ccc(=O)[nH]c2=O)[C@](C)(O)[C@@H]1O [Compound 3] | < 4.00
